Data on one compound can be found in patent publication US12599660B2, “Therapeutic RNA for HPV-positive cancer” (priority 2020, dated 2026).

SMILES strings stand for the structures.

In this experiment the test system is TC-1 luc tumors. The experiment is described as follows: TC-1 luc tumor model with E7 RNA-LPX and cisplatin chemotherapy: tumor growth and survival. It counts as in vivo, C57BL/6 mice. As to conditions: 40 μg RNA-LPX day 16, 80 μg cisplatin or PBS i.p. day 22 and 28. The method, then:
For therapeutic tumor experiments, C57BL/6 mice were injected with 1×10^5 TC-1 or TC-1 luc tumor cells and 5×10^5 C3 tumor cells subcutaneously into to the right flank. Tumor growth was measured unblinded with a caliper every three to four days and tumor volumes calculated by (a^2 x b)/2 (a, width; b, length). Mice were immunized intravenously with 40 μg E7 or control (OVA) RNA-LPX. Arrows in vaccination schemes indicate immunization. Mice were randomized according to their tumor size prior RNA-LPX immunization. The orthovoltage X-ray source XRAD320 (Precision X-Ray Inc.) was used for tumor irradiation, irradiating tumors locally with different doses at a dose rate of 0.47 Gy/min. Biological effective doses were calculated using the formula
In some experiments, mice received 80 μg cisplatin chemotherapy or PBS intraperitoneal (i.p.) twice after RNA-LPX vaccination.
For Example 9, Statistical analysis was performed with GraphPad PRISM 9. For tumor growth analysis, two-way analysis of variance (ANOVA) was performed and when determined significant (p<0.05), Tukey's multiple comparison test run.

As to `N.N.[Cl][Pt][Cl]` [Cisplatin, cis-diamminedichloroplatinum (II)], the tumor growth entry was “only slightly improved tumor growth”.
